molecular target: T1, human leukocyte elastase (Homo sapiens, UniProt P08246); experiment: human leukocyte elastase (HLE) inhibitory activity, substrate MeOSuc-Ala-Ala-Pro-Val-pNA; assay type: biochemical; conditions: pH 7.8, 25° C., steady-state velocities
T1 sequence (P08246 30-267): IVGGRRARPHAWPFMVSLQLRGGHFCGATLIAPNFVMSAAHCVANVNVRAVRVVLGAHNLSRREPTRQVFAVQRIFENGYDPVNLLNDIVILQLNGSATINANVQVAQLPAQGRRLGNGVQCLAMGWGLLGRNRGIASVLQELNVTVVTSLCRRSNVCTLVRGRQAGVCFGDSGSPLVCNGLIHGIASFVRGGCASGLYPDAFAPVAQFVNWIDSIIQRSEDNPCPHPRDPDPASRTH
Experimental: The test compound (inhibitor) is dissolved in DMSO in a vial to produce an inhibitor stock solution which has a concentration in the range of 200-1000 μM. The inhibitor stock solution is diluted (1:4, 1:16 and 1:64) into assay vials (vials 1, 2 and 3 respectively) containing 2.4 mL of buffer solution (50 mM N-[2-hydroxyethyl] piperazine-N'-[2-ethanesulfonic acid]/NaOH, 500 mM NaCl, pH 7.8 at 25° C.) and DMSO is added so that the total volume in each vial is 3.2 mL. 70 μL, 50 μL, 35 μL and 25 μL of inhibitor from assay vial 1 is placed into the first four wells of a 96-well microtiter plate and each well is made up to 90 μL total volume with the addition of a 25% DMSO/buffer solution. The inhibitor from assay vials 2 and 3 is processed in a similar manner and placed in wells 5-12 respectively to afford a total of 12 different inhibitor concentrations. Four wells (wells 13-16) containing 90 μL of the 25% DMSO/buffer solution but no inhibitor are also run simultaneously with the inhibited wells as a control. 150 μL of substrate solution (prepared by the addition of 500 μL of the human leukocyte elastase (HLE) substrate MeOSuc-Ala-Ala-Pro-Val-pNA (18.7 mM in DMSO) to 19.5 mL of buffer solution) is then added simultaneously into each of the 16 wells and the solution in each well was thoroughly mixed.
The 96-well microtiter plate is placed into a Microplate Reader #89815A spectrophotometer and 110 μL of the enzyme solution (prepared as follows: a mixture of 20 mL of buffer solution and 20 mg of bovine serum albumen is gently vortexed in a scintillation vial and 5 μL HLE stock solution (1 mg/mL dissolved in deionized water) is added) is added simultaneously to each of the 16 wells. Each of the solutions in the wells is throughly mixed and then the time-dependent absorbance data is collected at an absorbance of 410 nm until the assay is complete. It should be noted that although this assay method can be done manually, it is preferred to perform the assay robotically using a Hewlett Packard MicroAssay System Robot. the absorbance versus time data thus obtained affords curves the final slope of which is equal to the final steady-statevelocities (VF). Using the program ENZFITTER (Elsevier software), the progress curves for the four control assays ([I]=0 are fit by linear regression to yield the enzyme reaction velocity values in the absences of inhibitor (Vo) which are averaged to produce a single fixed value. The inhibition constant Ki (nM) is then obtained from a plot of [formula] which affords a linear plot wherein: [formula] and [S] is the concentration of the substrate and Km is the Michaelis constant.
Table I summarizes the results obtained from the testing of compounds of the invention for human leukocyte elastase inhibitory activity.

| Ki | Compound |
| --- | --- |
| 0.027 nM | COc1cc(C(C)C)c2c(c1)S(=O)(=O)N(COc1cc(C(F)(F)F)nn1-c1ncc(Cl)cc1C(F)(F)F)C2=O [34 (b), 4-isopropyyl-6-methoxy-2-[1-(5-chloro-3-trifluoromethyl-2-pyridyl)-3-trifluoromethylpyrazol-5-yl-oxymethyl]-1,2-benzisothiazol-3(2H)-one 1,1-dioxide] |
| 0.089 nM | COc1cc(C(C)C)c2c(c1)S(=O)(=O)N(COc1cc(C(F)(F)F)nn1-c1ccc(Cl)cn1)C2=O [28 (c), 4-isopropyl-6-methoxy-2-[1-(5-chloro-2-pyridyl)-3-(trifluoromethyl)pyrazol-5-yl-oxymethyl]-1,2-benzisothiazol-3(2H)-one 1,1-dioxide] |
| 0.058 nM | COc1cc(C(C)C)c2c(c1)S(=O)(=O)N(COc1cc(C#N)nn1-c1ccc(Cl)cc1Cl)C2=O [50 (b), 4-isopropyl-6-methoxy-2-[1-(2,4-dichlorophenyl)-3-cyanopyrazol-5-yl-oxymethyl]-1,2-benzisothiazol-3(2H)-one 1,1-dioxide] |
| 0.22 nM | CC(C)c1cc(OCC(C)(C)C(=O)O)cc2c1C(=O)N(COc1cc(C(F)(F)F)nn1-c1ccccc1)S2(=O)=O [18 (b), 4-isopropyl-6-[2-(carboxy-2-methyl)propoxy]-2-(1-phenyl-3-trifluoromethylpyrazol-5-yl-oxymethyl)-1,2-benzisothiazol-3(2H)-one 1,1-dioxide] |
| 0.024 nM | COc1cc(C(C)C)c2c(c1)S(=O)(=O)N(COc1cc(C(F)(F)F)nn1-c1ccccn1)C2=O [10 (b), 4-isopropyl-6-methoxy-2-[1-(2-pyridyl)-3-trifluoromethylpyrazol-5-yl-oxymethyl]-1,2-benzisothiazol-3(2H)-one 1,1-dioxide] |
| 0.47 nM | COc1cc(C(C)C)c2c(c1)S(=O)(=O)N(COc1cc(-c3ccccc3)nn1C)C2=O [2 (b), 4-isopropyl-6-methoxy-2-(1-methyl-3-phenylpyrazol-5-yl-oxymethyl)-1,2-benzisothiazol-3(2H)-one 1,1-dioxide] |
| 0.19 nM | COc1cc(C(C)C)c2c(c1)S(=O)(=O)N(COc1cc(-c3ccncc3)nn1-c1ccc(Cl)cc1)C2=O [14 (c), 4-isopropyl-6-methoxy-2-[1-(4-chlorophenyl)-3-(4-pyridyl)pyrazol-5-yl-oxymethyl]-1,2-benzisothiazol-3(2H)-one 1,1-dioxide] |
| 0.074 nM | CC(C)c1cc(OCCCC(=O)O)cc2c1C(=O)N(COc1cc(C(F)(F)F)nn1-c1ccc(Cl)cc1)S2(=O)=O [39 (c), 4-isopropyl-6-[3-(carboxy)propoxy]-2-[1-(4-chlorophenyl)-3-trifluoromethylpyrazol-5-yl-oxymethyl]-1,2-benzisothiazol-3(2H)-one 1,1-dioxide] |
| 0.089 nM | COc1cc(C(C)C)c2c(c1)S(=O)(=O)N(COc1cc(C(F)(F)F)nn1-c1ccc([N+](=O)[O-])cc1)C2=O [11 (c), 4-isopropyl-6-methoxy-2-[1-(4-nitrophenyl)-3-trifluoromethylpyrazol-5-yl-oxymethyl)-1,2-benzisothiazol-3(2H)-one 1,1-dioxide] |
| 0.11 nM | COc1cc(C(C)C)c2c(c1)S(=O)(=O)N(COc1cc(C(F)(F)F)nn1-c1ccc(Cl)cc1)C2=O [8 (b), 4-isopropyl-6-methoxy-2-[1-(4-chlorophenyl)-3-trifluoromethylpyrazol-5-yl-oxymethyl]-1,2-benzisothiazol-3(2H)-one 1,1-dioxide] |
| 0.081 nM | COc1ccc(COC(=O)c2ccc(COc3cc(C(C)C)c4c(c3)S(=O)(=O)N(COc3cc(C(F)(F)F)nn3-c3ccccc3)C4=O)o2)cc1 [42 (b)] |
| 0.12 nM | CC(C)c1cc(OCc2ccc(CN(C)C)o2)cc2c1C(=O)N(COc1cc(C(F)(F)F)nn1-c1ccccc1)S2(=O)=O [Example 13] |
| 0.055 nM | COc1cc(C(C)C)c2c(c1)S(=O)(=O)N(COc1cc(C(F)(F)F)nn1-c1ccc(Cl)nn1)C2=O [32 (c), 4-isopropyl-6-methoxy-2-[1-(3-chloropyridazin-6-yl)-3-trifluoromethylpyrazol-5-yl-oxymethyl]-1,2-benzisothiazol-3(2H)-one 1,1-dioxide] |
| 0.44 nM | COc1cc(C(C)C)c2c(c1)S(=O)(=O)N(COc1cc(C)nn1-c1ccccc1)C2=O [4 (b), 4-isopropyl-6-methoxy-2-(1-phenyl-3-methylpyrazol-5-yl-oxymethyl)-1,2-benzisothiazol-3(2H)-one 1,1-dioxide] |
| 0.5 nM | CCOc1cc(OCC)c2c(c1)S(=O)(=O)N(COc1cc(C(F)(F)F)nn1-c1ccccc1)C2=O [Example 47, 4,6-diethoxy-2-[1-phenyl-3-trifluoromethylpyrazol-5-yl-oxymethyl]-1,2-benzisothiazol-3(2H)-one 1,1-dioxide] |
| 0.31 nM | COc1cc(C(C)C)c2c(c1)S(=O)(=O)N(COc1cc(C(=O)O)nn1-c1ccccc1)C2=O [Example 21, 4-isopropyl-6-methoxy-2-[1-phenyl-3-(carboxy)pyrazol-5-yl-oxymethyl]-1,2-benzisothiazol-3(2H)-one 1,1-dioxide] |
| 0.18 nM | CC(C)c1cc(OCCC(C)(C)C(=O)O)cc2c1C(=O)N(COc1cc(C(F)(F)F)nn1-c1ccccc1)S2(=O)=O [38 (d)] |
| 0.068 nM | COc1cc(C(C)C)c2c(c1)S(=O)(=O)N(COc1cc(C(F)(F)F)nn1-c1ccccc1)C2=O [Example 3, 4-isopropyl-6-methoxy-2-(1-phenyl-3-trifluoromethylpyrazol-5-yl-oxymethyl)-1,2-benzisothiazol-3(2H)-one 1,1-dioxide] |
| 0.145 nM | COc1cc(C(C)C)c2c(c1)S(=O)(=O)N(COc1ccnn1-c1ccccc1)C2=O [6 (c), 4-isopropyl-6-methoxy-2-(1-phenylpyrazol-5-yl-oxymethyl)-1,2-benzisothiazol-3(2H)-one 1,1-dioxide] |

| Compound | Ki |
| --- | --- |
| COc1cc(C(C)C)c2c(c1)S(=O)(=O)N(COc1cc(C(=O)OC(C)(C)C)nn1-c1ccccc1)C2=O [33 (b), 4-isoorooyl-6-methoxy-2-[1-phenyl-3-(t-butoxycarbonyl)pyrazol-5-yl-oxymethyl]-1,2-benzisothiazol-23 (2H)-one 1,1-dioxide] | 0.1 nM |
